Measured values from patent US5843916A, “Cyclic amp analogues, individually and in pairs, to inhibit neoplastic cell growth” (priority 1994, dated 1998).
Entries after “also recorded” stand apart in the source; their conditions may differ. Where two headings read alike, the source gives them in different places.

What was measured:
[1] = system: four leukemic cell lines (HL-60, K-562, myc-K562, Molt-4); test: Growth inhibition of leukemic cell lines; type: cell-based, human; conditions: Homo sapiens; leukemic cell lines, range
MCF-7 = test: Growth of MCF-7 cells (Tables 3, 11); type: cell-based; conditions: Homo sapiens, MCF7, 72 h
Protocol: All breast cancer cell lines were grown in IMEM supplemented with 10% fetal bovine serum, HEPES 20 mM, penicillin-streptomycin, and extra glutamine. Colon carcinoma cell lines were grown in EMEM supplemented with 10% FBS, EMEM, NEAA, HEPES 20 mM, extra glutamine, and penicillin-streptomycin. The cells were grown at 37° C. in humidified incubators in an atmosphere of 5% CO2.
For cell growth experiments, 2-3×10^5 cells/60 mm dish were seeded, and 24 hours later (Day 0), the medium was removed, and fresh medium and the additives were added then and every 48 hours thereafter. The compounds of the present invention were added using 100X concentrated stock solutions. At desired times, cell counts in duplicate were performed on a Coulter counter after harvesting the cells with gentle trypsinization.

[2] = system: RI and RII cAMP receptor proteins, MDA-MB-231; test: Photoaffinity labelling of cAMP receptor proteins (Table 10, FIG. 6); type: cell-based, human; conditions: 3 days, 8-Cl and N^6-benzyl 10 μM, dibutyryl 1 mM; for relative level of RI / relative level of RII: control RI = 1.0 O.D.
Protocol: (§1) Photoactivated incorporation of 8-N3 [^32 P] was performed as described below.
(§2) M is marker proteins of known molecular weight.
(§3) Each lane contained 50 micrograms protein for SDS-PAGE.
(§4) The incubations were carried out at 23° C. for 60 minutes in 96-well immunoplates. The reaction mixtures were then irradiated for 30 seconds at 254 nm, placing a Mineralite UVS-11 hand lamp directly onto the plate. The samples were mixed with 25 microliters of 3× sample buffer (3% SDS, 15% beta-mercaptoethanol, 30 mM Tris, 30% glycerol, 1% bromophenol blue saturated solution), boiled for 3 minutes, and centrifuged at 700 × g for five minutes. The samples containing 10-30 micrograms of protein were subjected to 0.05% SDS-12% PAGE. The gels were fixed, dried, and exposed to X-ray films overnight. The protein concentrations were determined by the method of Lowry et al., J. Biol. Chem. 193: 265-275, 1951, with bovine serum albumin as standard.
(§5) The levels of the receptor proteins are expressed relative to the RI level in the untreated control cells of MDA-MB-231 and LS-174T which are each set equal to 1.0 O.D.; the scale was expanded to differentiate the lower intensity bands.

[3] = system: RI and RII cAMP receptor proteins, LS-174T; test: as above; type: cell-based, human; conditions: 3 days, 8-Cl and N^6-benzyl 10 μM, dibutyryl 1 mM; for relative level of RI / relative level of RII: control RI = 1.0 O.D.
Protocol: as §1, §2, §3, §4, §5

K-562 = test: Growth inhibition of leukemic cells (Table 12); type: cell-based; conditions: Homo sapiens, K562
HL-60 = test: Growth inhibition of leukemic cells (Table 12); type: cell-based; conditions: Homo sapiens
[4] = system: breast (MCF-7) and colon (LS-174T) cancer cell lines; test: Growth inhibition of breast and colon cancer cells (Table 1); type: cell-based, human; conditions: for inhibition at 50 µM: Homo sapiens
Procedure, shortened: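 MCF-7 and LS-174T cells seeded day −1, treated on day 0 and day 2; duplicate Coulter counts on days 3 and 4 after gentle trypsinization. Percent growth inhibition versus untreated controls from dose-response curves, averaged over ≥3 experiments.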

[5] = system: DMBA-induced mammary carcinomas; test: Growth of DMBA-induced mammary carcinomas, pellet (Table 4); type: in vivo, rat; conditions: for tumor growth: 10 mg pellet for 8-Cl-cAMP, implanted twice every two weeks
Protocol: Treated tumors regress almost 100% within 30 days.
^b 8Cl-cAMP (20 mg pellet per rat, consisting of 10 mg 8Cl-cAMP and […]
mg cholesterol), was implanted on day 0 and day 14.

[6] = system: c-myc protein, Molt-4 leukemic cells; test: Western blotting of c-myc protein (FIG. 9B); type: cell-based, human; conditions: three days; 8-Cl-cAMP 5 μM, DBcAMP 1 mM, 8-Cl-adenosine 5 μM
Protocol: The cells were grown in suspension culture in RPMI 1640 medium supplemented with 10% fetal bovine serum, penicillin (50 U/ml), streptomycin (500 μg/mL), 10 mM HEPES buffer, and extra glutamine. […] Surface antigen analysis of HL-60 cells was performed by flow cytometry using a panel of monoclonal antibodies reactive with either myeloid cells or monocytic cells. Terminal deoxynucleotidyl transferase (TdT) was assayed by an immunoperoxidase method using a TdT fluorescence kit. Western blotting of c-myc protein was performed using c-myc antibody 15206D11 (Scripps Clinic and Research Foundation, LaJolla, Calif.).
M, marker proteins of known molecular weight. […] The resulting supernatants were used as cell lysates. […] ND=nondetectable.

Molt-4 = test: Growth inhibition of leukemic cells (Table 12); type: cell-based, human; conditions: for IC50: Homo sapiens, MOLT-4
[7] = system: RI cAMP receptor protein, Molt-4 leukemic cells; test: Photoaffinity labelling of RI cAMP receptor protein (FIG. 9A); type: cell-based, human; conditions: three days; 8-Cl-cAMP 5 μM, DBcAMP 1 mM, 8-Cl-adenosine 5 μM
[8] = system: RI and RII cAMP receptor proteins, breast (MDA-MB-231) and colon (LS-174T) cancer cells; test: cAMP receptor protein levels, breast and colon cancer cells (FIG. 6); type: cell-based, human; conditions: for RI and RII receptor levels: three days, FIG. 6
Protocol: as §1, §2
The incubations were carried out at 23° C. for 60 minutes in 96-well immunoplates. […] The gels were fixed, dried, and exposed to X-ray films overnight.

[9] = Table 11, 8-Cl-cAMP 10 μM, 8-Cl-adenosine 5 μM, DBcAMP 500 μM, control 100
[10] = 72 h, 50 μM, day 3, average (range), read-out: % Growth Inhibition, Day 3
[11] = 96 h, 50 μM, day 4, average (range), read-out: % Growth Inhibition, Day 4

## Nc1ncnc2c1nc(Cl)n2[C@@H]1O[C@@H]2COP(=O)(O)O[C@H]2[C@H]1O [8-Cl-cAMP, 8-chloro-adenosine 3': 5'-monophosphate]
[1]
  IC50: 5 to 20 µM
MCF-7
  inhibition at 10 µM: 57%
MCF-7; 10 μM, 3 days, control 100 (Table 3)
  activity at 10 µM: 40%
MCF-7; [9]
  activity at 10 µM: 43%
[2]
  RII/RI: 0.60
  relative level of RI: 0.25 ± 0.03
  relative level of RII: 0.15 ± 0.01
[3]
  RII/RI: 1.25
  relative level of RI: 0.20 ± 0.02
  relative level of RII: 0.25 ± 0.02
K-562
  IC50: 20 µM
HL-60
  IC50: 10 µM
[4]; [10]
  inhibition at 50 µM: 67%
[4]; [11]
  inhibition at 50 µM: 75%
[4]; 50 micromolar, read-out: growth inhibition
  inhibition at 50 µM: 40 to 75%
[5]
  tumor growth: completely stopped tumor growth
[5]; 10 mg pellet, within 30 days
  tumor regression: ~100%
[5]; pellet day 0 and day 14, day 30, mean ± S.E.
  Mean % of change in tumor volume: -96 ± 20%
[6]
  c-myc protein level: marked reduction of c-myc protein level
Molt-4; read-out: Inhibition of Growth IC50, Molt-4
  IC50: 5 µM
[7]
  RI receptor protein level: markedly decreased
[8]; densitometric tracings
  decrease in the RI level: 70-80%
  increase in the ratio of RII to RI: two- to three-fold increase
[8]
  RI and RII receptor levels: the cAMP receptor protein with a molecular weight of 52,000 increased appreciably with concomitant decrease of the 48,000 RI receptor protein

## CCCC(=O)Nc1ncnc2c1ncn2[C@@H]1O[C@@H]2COP(=O)(O)O[C@H]2[C@H]1OC(=O)CCC [DBcAMP, N^6, O^2' -dibutyryl-cAMP, reference compound]
[1]
  IC50: 500 to 1000 µM
MCF-7
  inhibition at 500 µM: 20%
MCF-7; [9]
  activity at 500 µM: 80%
[2]
  RII/RI: 0.07
  relative level of RI: 1.0 ± 0.1
  relative level of RII: 0.07 ± 0.01
[3]
  RII/RI: 0.19
  relative level of RI: 0.80 ± 0.10
  relative level of RII: 0.15 ± 0.02
K-562
  IC50: 1000 µM
HL-60
  IC50: 500 µM
[4]; 50 micromolar
  growth inhibition: no growth inhibition
[4]; [10]
  inhibition at 50 µM: 0%
[4]; [11]
  inhibition at 50 µM: 0%
[5]
  tumor growth: only arrests this tumor growth without producing regression
[6]
  c-myc protein level: did not affect the c-myc protein level
Molt-4; read-out: Inhibition of Growth IC50, Molt-4 (symbol)
  IC50: > 1000 µM
Molt-4; Molt-4
  50% growth inhibition: the 50% growth inhibition could not be obtained
[7]
  RI receptor protein level: without appreciable change
[8]
  RI and RII receptor levels: the RI and RII receptor levels remained unchanged; also recorded: did not appreciably affect the RI or RII receptor levels
